Test results: patent US4962224A, “N-naphthoylglycines as aldose reductase inhibitors” (American Home Products Corporation, priority 1989, dated 1990)
Where “and” joins values, the source holds several entries; their conditions need not be identical. Equal entries are not always repeated. Where two headings read alike, the source gives them in different places. Blank lines part the entries; values can stand above or below the molecule they belong to.

What was measured:
dulcitol accumulation = experiment: lowering of dulcitol (galactitol) accumulation in tissues of galactosemic rats (Table I, IN VIVO); set-up: species or system rat (Sprague-Dawley); conditions: galactosemic rats, 4 days; for % Lowering dulcitol accumulation IN VIVO, D: diaphragm; for % Lowering dulcitol accumulation IN VIVO, L: lens
Description: Such experiments are exemplified hereinbelow after the listing of the following general comments pertaining to these experiments:
(a) Four or more groups of six male rats, […], Sprague-Dawley strain, were used. The first group, the control group, was fed a mixture of laboratory chow (rodent Laboratory Chow, Purina) and […] at 20% (w/w %) concentration. […] The test compound was either admixed to the diet or administered by gavage. In experiments involving compound administration in the diet, the average dose administered was calculated from the actual food intake of the animals in each group. The concentration of galactose in the diet of the treated groups was the same as that for the untreated galactosemic group.
(b) After four days, the animals were killed by decapitation. The eyeballs were removed and punctured with a razor blade; the freed lenses were rolled gently on filter paper and weighed. The sciatic nerves were dissected as completely as possible and weighed. Both tissues when frozen can be kept up to two weeks before being analyzed for galactitol.
Only two minor reagent changes were made: (a) the rinsing mixture was an aqueous 5% (w/v) trichloroacetic acid solution and (b) the stock solution was prepared by dissolving 25 mg of dulcitol in 100 mL of an aqueous trichloroacetic acid solution. [N.B.: For each experiment the average value found in the tissue from rats fed the glucose diet was subtracted from the individual values found in the corresponding tissue in galactose-fed rats to obtain the amount of polyol accumulated.]
The figures under L, N, and D represent the percentage decrease of galactitol accumulation in the tissues of the lens, sciatic nerve, and diaphragm, respectively, for treated rats as compared to untreated rats.

aldose reductase = target: T1, aldose reductase (Bos taurus, UniProt P16116); experiment: aldose reductase inhibiting effects in vitro (Table I, IN VITRO); assay type: biochemical, bovine (lens); conditions: for inhibition at 0.04 µM / inhibition at 1 µM / inhibition at 0.1 µM / inhibition at 10 µM: read-out: % Inhibition IN VITRO
T1 construct: preparation of the enzyme from bovine lens; from tissue; host or cells: bovine lens
Description: In the present case the procedure of Hayman and Kinoshita was modified in that the final chromatography step was omitted in the preparation of the enzyme from bovine lens. The results are tabulated in Table I under the heading IN VITRO.

Structure (SMILES): COc1ccc2c(C(=S)N(C)CC(=O)O)c(OCC(F)(F)F)ccc2c1C(F)(F)F [Example 5, N-[[6-Methoxy-2-(2,2,2-trifluoroethoxy)-5-(trifluoromethyl)-1-naphthalenyl]thioxomethyl]-N-methylglycine]
% Lowering dulcitol accumulation IN VIVO, D (dulcitol accumulation; 26 mg/kg): 88%
% Lowering dulcitol accumulation IN VIVO, L (dulcitol accumulation; 26 mg/kg): N.S.
inhibition at 0.04 µM (aldose reductase; 4 × 10^-8 M): 49%
inhibition at 1 µM (aldose reductase; 10^-6 M): 95%
inhibition at 0.1 µM (aldose reductase; 10^-7 M): 87%
inhibition at 10 µM (aldose reductase): 99%

inhibition at 0.04 µM (aldose reductase; 4 × 10^-8 M): 36%
inhibition at 10 µM (aldose reductase; 10^-5 M): 90%
inhibition at 1 µM (aldose reductase; 10^-6 M): 87%
inhibition at 0.1 µM (aldose reductase; 10^-7 M): 63%
Structure (SMILES): COc1ccc2c(C(=O)N(C)CC(=O)O)c(Cl)ccc2c1C(F)(F)F [Cl O OH, N-[[2-Chloro-6-methoxy-5-(trifluoromethyl)-1-naphthalenyl]carbonyl]-N-methylglycine]

Structure (SMILES): COc1ccc2c(C(=O)N(C)CC(=O)O)c(OCC(F)(F)F)ccc2c1C(F)(F)F [Example 3, N-[[6-Methoxy-2-(2,2,2-trifluoroethoxy)-5-(trifluoromethyl)-1-naphthalenyl]carbonyl]-N-methylglycine]
inhibition at 0.04 µM (aldose reductase; 4 × 10^-8 M): 32%
inhibition at 1 µM (aldose reductase; 10^-6 M): 91%
inhibition at 0.1 µM (aldose reductase; 10^-7 M): 67%
inhibition at 10 µM (aldose reductase): 96%

Structure (SMILES): COc1ccc2c(C(=S)N(C)CC(=O)O)c(F)ccc2c1C(F)(F)F [F S OH, N-[[2-Fluoro-6-methoxy-5-(trifluoromethyl)-1-naphthalenyl]thioxomethyl]-N-methylglycine]
% Lowering dulcitol accumulation IN VIVO, D (dulcitol accumulation; 4.8 mg/kg): 86%
% Lowering dulcitol accumulation IN VIVO, D (dulcitol accumulation; 25 mg/kg): 93%
% Lowering dulcitol accumulation IN VIVO, L (dulcitol accumulation; 4.8 mg/kg): N.S.
% Lowering dulcitol accumulation IN VIVO, L (dulcitol accumulation; 25 mg/kg): 23%
inhibition at 0.04 µM (aldose reductase; 4 × 10^-8 M): 45%
inhibition at 1 µM (aldose reductase): 94%
inhibition at 10 µM (aldose reductase): 99%

Structure (SMILES): COc1ccc2c(C(=O)N(C)CC(=O)O)c(F)ccc2c1C(F)(F)F [F O OH, N-[[2-Fluoro-6-methoxy-5-(trifluoromethyl)-1-naphthalenyl]carbonyl]-N-methylglycine]
% Lowering dulcitol accumulation IN VIVO, L (dulcitol accumulation; 52 mg/kg): 15%
% Lowering dulcitol accumulation IN VIVO, L (dulcitol accumulation; 100 mg/kg): 17%
inhibition at 0.04 µM (aldose reductase; 4 × 10^-8 M): 49%
inhibition at 0.1 µM (aldose reductase; 10^-7 M): 80%
inhibition at 1 µM (aldose reductase): 93%
inhibition at 10 µM (aldose reductase): 94%

Structure (SMILES): CCCOc1ccc2c(C(F)(F)F)c(OC)ccc2c1C(=O)N(C)CC(=O)O [Example 7, N-[[6-Methoxy-2-propoxy-5-(trifluoromethyl)-1-naphthalenyl]carbonyl]-N-methylglycine]
% Lowering dulcitol accumulation IN VIVO, D (dulcitol accumulation; 50 mg/kg): 57%
% Lowering dulcitol accumulation IN VIVO, L (dulcitol accumulation; 50 mg/kg): N.S.
inhibition at 0.04 µM (aldose reductase; 4 × 10^-8 M): 21%
inhibition at 0.1 µM (aldose reductase): 46%

inhibition at 10 µM (aldose reductase; 10^-5 M): 95%
inhibition at 1 µM (aldose reductase; 10^-6 M): 90%
inhibition at 0.1 µM (aldose reductase; 10^-7 M): 63%
Structure (SMILES): COc1ccc2c(C(=O)N(C)CC(=O)O)c(Br)ccc2c1C(F)(F)F [Example 9, N-[[2-Bromo-6-methoxy-5-(trifluoromethyl)-1-naphthalenyl]carbonyl]-N-methylglycine]
% Lowering dulcitol accumulation IN VIVO, D (dulcitol accumulation; 97 mg/kg): 84%
% Lowering dulcitol accumulation IN VIVO, L (dulcitol accumulation; 97 mg/kg): 8%

Structure (SMILES): COc1ccc2c(C(F)(F)F)c(OC)ccc2c1C(=O)N(C)CC(=O)O [OCH3 O OH]
% Lowering dulcitol accumulation IN VIVO, D (dulcitol accumulation; 26 mg/kg): 71%
% Lowering dulcitol accumulation IN VIVO, D (dulcitol accumulation; 53 mg/kg): N.S.
% Lowering dulcitol accumulation IN VIVO, L (dulcitol accumulation; 26 mg/kg): N.S.
% Lowering dulcitol accumulation IN VIVO, L (dulcitol accumulation; 53 mg/kg): N.S.
inhibition at 0.04 µM (aldose reductase; 4 × 10^-8 M): 56%
inhibition at 10 µM (aldose reductase; 10^-5 M): 95%
% Inhibition IN VITRO (aldose reductase; 10^-6 M): 92%
inhibition at 1 µM (aldose reductase; 10^-6 M): 95%
% Inhibition IN VITRO (aldose reductase; 10^-7 M): 91% and 62%
inhibition at 0.04 µM (aldose reductase): 38%
inhibition at 10 µM (aldose reductase): 99%

Structure (SMILES): COc1ccc2c(C(=S)N(C)CC(=O)O)c(Cl)ccc2c1C(F)(F)F [Example 10, N-[[2-Chloro-6-methoxy-5-(trifluoromethyl)-1-naphthalenyl]thioxomethyl]-N-methylglycine]
% Lowering dulcitol accumulation IN VIVO, D (dulcitol accumulation; 24 mg/kg): 90%
% Lowering dulcitol accumulation IN VIVO, L (dulcitol accumulation; 24 mg/kg): N.S.
inhibition at 0.04 µM (aldose reductase; 4 × 10^-8 M): 51%
inhibition at 10 µM (aldose reductase; 10^-5 M): 95%
inhibition at 1 µM (aldose reductase; 10^-6 M): 91%
inhibition at 0.1 µM (aldose reductase; 10^-7 M): 81%

Structure (SMILES): COc1ccc2c(C(=O)N(C)CC(=O)O)c(Oc3ccccc3)ccc2c1C(F)(F)F [Example 8, N-[[6-Methoxy-2-phenoxy-5-(trifluoromethyl)-1-naphthalenyl]carbonyl]-N-methylglycine]
% Lowering dulcitol accumulation IN VIVO, D (dulcitol accumulation; 48 mg/kg): 67%
% Lowering dulcitol accumulation IN VIVO, L (dulcitol accumulation; 48 mg/kg): N.S.
inhibition at 0.04 µM (aldose reductase; 4 × 10^-8 M): 50%
inhibition at 0.1 µM (aldose reductase; 10^-7 M): 83%
inhibition at 1 µM (aldose reductase): 93%
inhibition at 10 µM (aldose reductase): 93%

Structure (SMILES): COc1ccc2c(C(=S)N(C)CC(=O)O)c(OCc3ccccc3)ccc2c1C(F)(F)F
inhibition at 0.04 µM (aldose reductase; 4 × 10^-8 M): 45%
inhibition at 0.1 µM (aldose reductase; 10^-7 M): 84%
inhibition at 1 µM (aldose reductase): 96%
inhibition at 10 µM (aldose reductase): 96%

inhibition at 10 µM (aldose reductase; 10^-5 M): 9%
inhibition at 1 µM (aldose reductase; 10^-6 M): 0%
Structure (SMILES): COc1ccc2c(C(=O)N(C)CC(N)=O)c(Cl)ccc2c1C(F)(F)F [Example 2, [[[2-Chloro-6-methoxy-5-(trifluoromethyl)-1-naphthalenyl]carbonyl]methylamino]acetamide]
% Lowering dulcitol accumulation IN VIVO, D (dulcitol accumulation; 24 mg/kg): 53%
% Lowering dulcitol accumulation IN VIVO, L (dulcitol accumulation; 24 mg/kg): N.S.

inhibition at 10 µM (aldose reductase; 10^-5 M): 8%
inhibition at 1 µM (aldose reductase; 10^-6 M): 1%
Structure (SMILES): COc1ccc2c(C(=O)N(C)CC(N)=O)c(OCC(F)(F)F)ccc2c1C(F)(F)F [OCH2 CF3 O NH2]
% Lowering dulcitol accumulation IN VIVO, D (dulcitol accumulation; 24 mg/kg): N.S.
% Lowering dulcitol accumulation IN VIVO, L (dulcitol accumulation; 24 mg/kg): N.S.

inhibition at 10 µM (aldose reductase; 10^-5 M): 2%
inhibition at 1 µM (aldose reductase; 10^-6 M): 6%
Structure (SMILES): COc1ccc2c(C(=S)N(C)CC(N)=O)c(F)ccc2c1C(F)(F)F [F S NH2, [[[2-Fluoro-6-methoxy-5-(trifluoromethyl)-1-naphthalenyl]thioxomethyl]methylamino]acetamide]

inhibition at 10 µM (aldose reductase; 10^-5 M): 8%
inhibition at 1 µM (aldose reductase; 10^-6 M): 2%
Structure (SMILES): CCOC(=O)NC(=O)CN(C)C(=O)c1c(F)ccc2c(C(F)(F)F)c(OC)ccc12 [F O NHCO2 C2 H5, N-[2-[(Ethoxycarbonyl)amino]-2-oxoethyl]-2-fluoro-6-methoxy-N-methyl-5-(trifluoromethyl)-1-naphthalenecarboxamide]
% Lowering dulcitol accumulation IN VIVO, D (dulcitol accumulation; 22 mg/kg): 55%
% Lowering dulcitol accumulation IN VIVO, L (dulcitol accumulation; 22 mg/kg): N.S.

Structure (SMILES): CCOc1ccc2c(C(F)(F)F)c(OC)ccc2c1C(=O)N(C)CC(=O)O [Example 6, N-[[2-Ethoxy-6-methoxy-5-(trifluoromethyl)-1-naphthalenyl]carbonyl]-N-methylglycine]
% Lowering dulcitol accumulation IN VIVO, D (dulcitol accumulation; 49 mg/kg): 57%
% Lowering dulcitol accumulation IN VIVO, L (dulcitol accumulation; 49 mg/kg): N.S.
inhibition at 0.04 µM (aldose reductase; 4 × 10^-8 M): 33%
inhibition at 10 µM (aldose reductase; 10^-5 M): 89%
inhibition at 1 µM (aldose reductase; 10^-6 M): 89%
inhibition at 0.1 µM (aldose reductase): 65%

Structure (SMILES): CCCCOc1ccc2c(C(F)(F)F)c(OC)ccc2c1C(=O)N(C)CC(=O)O [Example 12, N-[[2-Butoxy-6-methoxy-5-(trifluoromethyl)-1-naphthalenyl]carbonyl]-N-methylglycine]
% Lowering dulcitol accumulation IN VIVO, D (dulcitol accumulation; 49 mg/kg): 55%
% Lowering dulcitol accumulation IN VIVO, L (dulcitol accumulation; 49 mg/kg): N.S.
inhibition at 0.04 µM (aldose reductase; 4 × 10^-8 M): 25%
inhibition at 10 µM (aldose reductase; 10^-5 M): 92%
inhibition at 1 µM (aldose reductase; 10^-6 M): 88%
inhibition at 0.1 µM (aldose reductase; 10^-7 M): 42%

Structure (SMILES): CCOc1ccc2c(C(F)(F)F)c(OC)ccc2c1C(=S)N(C)CC(=O)O [Example 4, N-[[2-Ethoxy-6-methoxy-5-(trifluoromethyl)-1-naphthalenyl]thioxomethyl]-N-methylglycine]
% Lowering dulcitol accumulation IN VIVO, D (dulcitol accumulation; 28 mg/kg): 85%
% Lowering dulcitol accumulation IN VIVO, L (dulcitol accumulation; 28 mg/kg): N.S.
inhibition at 0.04 µM (aldose reductase; 4 × 10^-8 M): 50%
inhibition at 1 µM (aldose reductase; 10^-6 M): 95%
inhibition at 0.1 µM (aldose reductase; 10^-7 M): 87%
inhibition at 10 µM (aldose reductase): 98%
